Laboratory results from patent US20080044904A1, “Glyphosate N-acetyltransferase (GAT) confers glyphosate resistance when expressed in plastids” (priority 2005, published 2008).

Experiments:
wild-type leaf sections = assay: Leaf section test on RMOP culture medium containing glyphosate, wild type control; type: cell-based, tobacco; details: RMOP medium containing 100 μm glyphosate (Glyphosate-isopropylammonium); three-week-old cultures
Source text: (§1) Shown are three-week-old cultures initiated from Nt-pMHB125 and Nt-pMHB126 leaves and wild type control. The culture medium and general tissue culture protocols are described in references Svab and Maliga, 1993; and Lutz et al., 2006.
(§2) The ability of leaf sections or stem sections of plants to germinate and/or grow as green plants in a culture containing selective levels of herbicides is a reliable assay of glyphosate resistance (Ye et al. (2003) Plant Physiol., 133:402-410; Ye et al. (2001) Plant J., 25:261-270). Selective levels of glyphosate in the culture medium were in the range of 50 μm to 200 μm, to which plants expressing the CP4 EPSPS gene were resistant. Therefore, sections of the Nt-pMHB125, Nt-pMHB126 and Nt-pMHB127 leaves were inoculated onto RMOP medium containing 100 μm glyphosate (Glyphosate-isopropylammonium). […] Such high level of resistance was sufficient to protect the plants from glyphosate treatment under filed conditions. The new glyphosate resistance (GAT) genes, when expressed in plastids, enable efficient weed control with an environmentally friendly herbicide. Since plastids are not transmitted via pollen in most crops, the GAT gene will not be disseminated via pollen, providing an efficient containment tool (Bock, R. (2001) J. Mol. Biol., 312:425-438; Maliga, P. (2004) Annu. Rev. Plant Biol., 55:289-313).

[1] = tested on: Nt-pMHB125 and Nt-pMHB126 leaves (tobacco cells expressing GAT in chloroplasts); assay: Leaf section test on RMOP culture medium containing glyphosate, plants expressing GAT in chloroplasts; type: cell-based
Source text: as §1, §2

`O=C(O)CNCP(=O)(O)O` [glyphosate, N-phosphonomethylglycine] was tested. Which “growth of wild-type leaf sections in the presence of the herbicide” value (wild-type leaf sections) did it give?
Its value is “failed to grow and bleached”.

What about the “resistance of tobacco cells expressing GAT in chloroplasts” value ([1]; 100 μM glyphosate in the RMOP culture medium, three-week-old cultures from Nt-pMHB125 and Nt-pMHB126 leaves) of the same molecule?
Its value is “resistant”.

What about the “growth of Nt-pMHB125 and Nt-pMHB126 leaf sections in the presence of the herbicide” value ([1]; RMOP medium containing 100 μm glyphosate (Glyphosate-isopropylammonium), three-week-old cultures) of the same molecule?
The value was “formed abundantly proliferating green calli”.
